Experiment [1] deals with OCI-AML5 Cas9 cells (sgDDB1, sgAAVS1). Nature of the experiment: Dose response in inducible OCI-AML5 Cas9 cells expressing sgRNAs targeting DDB1 or AAVS1. In kind it is cell-based, H. sapiens. As to conditions: 4 days, read-out: S656 IC50. The method, then:
Dose-response assays in primary AML specimens were performed as in chemical screen (see above) with the exception that compounds were tested in serial dilution (8 dilutions, 1:4, 10 μM down to 0.5 nM). Dose-response assays in OCI-AML5 cell line were conducted similarly with the following modifications: 300 cells per well were seeded in 50 μL of cell line media and cell viability was evaluated after 4 days in culture.
Clonal OCI-AML5 cells expressing an inducible Cas9 (Addgene plasmid #50661 (Wang et al, [2014])) were generated and then infected with lentiviruses for constitutive expression of sgRNAs targeting AAVS1 control region (Addgene plasmid #50662 (Wang et al, [2014])) or DDB1 #1 ([…]); #2 ([…]). Cas9 expression is induced by doxycycline (2 μg/mL) and experiments performed subsequently.

The subject of a further experiment is OCI-AML5 cells. The experiment can be described thus: Cell death by Annexin V/PI staining. In kind it is cell-based, H. sapiens. As to conditions: 24 h.
In experiment [2] the target is T1, OCI-AML5 total protein extracts (cyclin K, CDKs, DDB1) (Homo sapiens, UniProt P21439).
T1 construct: endogenous in cells; host or cells: OCI-AML5 total protein extract
Nature of the experiment: Pull-down with immobilized probes and quantitative mass spectrometry. In kind it is binding, H. sapiens. Particulars: protein ABCB4 (P21439). On the procedure: (§1) Probe compounds were immobilized through their terminal amine on NHS-sepharose beads as previously described (Médard et al, [2015]). The prepared beads were then washed in PBS and equilibrated in Triton X-100 buffer. For each replicate, 1–2 mg of total proteins (2 mg/ml) were incubated end-over-end with 25 μl of beads overnight at 4 °C in low protein binding microtubes (Sarstedt). The samples were then washed twice in Triton X-100 buffer, transferred to new microtubes and further washed six times in PBS including another microtube transfer at the last wash. Beads pellets were resuspended in 50 mM ammonium bicarbonate and subjected to reduction, alkylation and tryptic digest as described above. Peptides were separated on an home-made reversed-phase column (150-μm i.d. by 200 mm) with a 56-min gradient from 10 to 30% ACN-0.2% FA and a 600-nl/min flow rate on a Easy nLC-1200 connected to a Exploris 480 (ThermoFisher Scientific, San Jose, CA). Each full MS spectrum acquired at a resolution of 120,000 was followed by tandem-MS (MS-MS) spectra acquisition on the most abundant multiply charged precursor ions for 3 s. Tandem-MS experiments were performed using higher energy collision dissociation (HCD) at a collision energy of 34%. The data were processed using PEAKS X Pro (Bioinformatics Solutions, Waterloo, ON) and a Uniprot human database (20366 entries). Mass tolerances on precursor and fragment ions were 10 ppm and 0.01 Da, respectively. Fixed modification was carbamidomethyl (C). Variable selected posttranslational modifications were acetylation (N-ter), oxidation (M), deamidation (NQ), phosphorylation (STY). The data were visualized with Scaffold 5.0 (protein threshold, 99%, with at least 2 peptides identified and a false-discovery rate [FDR] of 1% for peptides).
(§2) Differential Enrichment analysis of Proteomics data (DEP) package (Zhang et al, [2018]) in R was used to analyze the data (excluding proteins identified based on a single peptide), including data filtering, normalization, imputation of missing values and statistical testing of differentially expressed proteins.

The target in experiment [3] is T2, OCI-AML5 total protein extracts (cyclin K, CDKs, DDB1) (Homo sapiens, UniProt Q86UQ4).
T2 construct: endogenous in cells; host or cells: OCI-AML5 total protein extract
The description is as above. It counts as binding, H. sapiens. Particulars: protein ABCA13 (Q86UQ4). The method, then:
as §1, §2

Experiment [4] concerns the target T3, OCI-AML5 total protein extracts (cyclin K, CDKs, DDB1) (Homo sapiens, UniProt P06493).
T3 construct: endogenous in cells; host or cells: OCI-AML5 total protein extract
The description is as above. It counts as binding, H. sapiens. Particulars: OCI-AML5 total protein extracts; DEP analysis. On the procedure: as §1, §2

Experiment [5] deals with T4, OCI-AML5 total protein extracts (cyclin K, CDKs, DDB1) (Homo sapiens, UniProt P50750).
T4 construct: endogenous in cells; host or cells: OCI-AML5 total protein extract
The description is as above. Particulars: OCI-AML5 total protein extracts; DEP analysis. It counts as binding, H. sapiens. The method, then: as §1, §2

Experiment [6] concerns the target T5, OCI-AML5 total protein extracts (cyclin K, CDKs, DDB1) (Homo sapiens, UniProt Q9NYV4).
T5 construct: endogenous in cells; host or cells: OCI-AML5 total protein extract
The experiment is described as above. It counts as binding, H. sapiens. As to conditions: OCI-AML5 total protein extracts; DEP analysis. On the procedure: as §1, §2

The mark [7] stands for this setting: centered abundance, competition (compe).
Where [8] appears, read: probe vs probe with competition.
The mark [9] stands for this setting: probe with competition (compe) vs UOM-005839.
Where [10] appears, read: probe with competition (compe) vs beads.

Molecules are shown by their SMILES. “And” between values parts separate entries of the source, which are not always exact repeats. Equal values may be shown once. Read-outs that look alike come from different tables or passages of the source.

T1 sequence (P21439 whole entry): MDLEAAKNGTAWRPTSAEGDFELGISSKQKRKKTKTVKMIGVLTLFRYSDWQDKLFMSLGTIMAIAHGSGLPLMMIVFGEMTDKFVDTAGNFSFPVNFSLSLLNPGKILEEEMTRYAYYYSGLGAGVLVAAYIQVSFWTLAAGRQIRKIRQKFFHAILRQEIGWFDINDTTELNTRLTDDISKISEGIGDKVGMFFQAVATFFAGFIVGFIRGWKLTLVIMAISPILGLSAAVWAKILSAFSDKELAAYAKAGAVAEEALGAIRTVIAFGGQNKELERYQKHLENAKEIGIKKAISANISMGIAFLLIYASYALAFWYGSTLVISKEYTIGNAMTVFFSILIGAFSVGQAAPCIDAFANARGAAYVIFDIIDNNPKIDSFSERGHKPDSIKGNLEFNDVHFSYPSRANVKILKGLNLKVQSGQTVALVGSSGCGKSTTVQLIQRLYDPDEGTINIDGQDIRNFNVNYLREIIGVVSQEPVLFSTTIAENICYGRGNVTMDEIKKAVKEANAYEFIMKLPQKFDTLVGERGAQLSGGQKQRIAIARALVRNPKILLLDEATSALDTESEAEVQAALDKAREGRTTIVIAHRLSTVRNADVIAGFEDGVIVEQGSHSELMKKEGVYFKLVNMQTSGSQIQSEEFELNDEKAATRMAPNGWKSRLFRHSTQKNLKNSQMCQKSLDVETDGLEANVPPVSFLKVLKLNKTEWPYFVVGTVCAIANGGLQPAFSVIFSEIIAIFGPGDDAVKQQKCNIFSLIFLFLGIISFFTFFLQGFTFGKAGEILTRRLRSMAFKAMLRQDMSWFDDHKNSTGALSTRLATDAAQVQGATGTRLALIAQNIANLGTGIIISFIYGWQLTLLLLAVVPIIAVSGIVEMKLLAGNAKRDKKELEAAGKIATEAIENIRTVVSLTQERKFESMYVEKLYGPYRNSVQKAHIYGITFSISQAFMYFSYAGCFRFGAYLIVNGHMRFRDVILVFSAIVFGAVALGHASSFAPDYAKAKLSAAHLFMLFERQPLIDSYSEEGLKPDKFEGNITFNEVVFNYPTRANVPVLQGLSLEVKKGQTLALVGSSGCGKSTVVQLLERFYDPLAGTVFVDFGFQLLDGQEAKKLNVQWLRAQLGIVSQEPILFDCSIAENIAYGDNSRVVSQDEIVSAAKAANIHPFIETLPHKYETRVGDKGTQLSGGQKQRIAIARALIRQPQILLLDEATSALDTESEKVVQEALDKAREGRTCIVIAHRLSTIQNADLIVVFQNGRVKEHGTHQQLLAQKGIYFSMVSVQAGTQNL
T5 sequence (Q9NYV4 whole entry): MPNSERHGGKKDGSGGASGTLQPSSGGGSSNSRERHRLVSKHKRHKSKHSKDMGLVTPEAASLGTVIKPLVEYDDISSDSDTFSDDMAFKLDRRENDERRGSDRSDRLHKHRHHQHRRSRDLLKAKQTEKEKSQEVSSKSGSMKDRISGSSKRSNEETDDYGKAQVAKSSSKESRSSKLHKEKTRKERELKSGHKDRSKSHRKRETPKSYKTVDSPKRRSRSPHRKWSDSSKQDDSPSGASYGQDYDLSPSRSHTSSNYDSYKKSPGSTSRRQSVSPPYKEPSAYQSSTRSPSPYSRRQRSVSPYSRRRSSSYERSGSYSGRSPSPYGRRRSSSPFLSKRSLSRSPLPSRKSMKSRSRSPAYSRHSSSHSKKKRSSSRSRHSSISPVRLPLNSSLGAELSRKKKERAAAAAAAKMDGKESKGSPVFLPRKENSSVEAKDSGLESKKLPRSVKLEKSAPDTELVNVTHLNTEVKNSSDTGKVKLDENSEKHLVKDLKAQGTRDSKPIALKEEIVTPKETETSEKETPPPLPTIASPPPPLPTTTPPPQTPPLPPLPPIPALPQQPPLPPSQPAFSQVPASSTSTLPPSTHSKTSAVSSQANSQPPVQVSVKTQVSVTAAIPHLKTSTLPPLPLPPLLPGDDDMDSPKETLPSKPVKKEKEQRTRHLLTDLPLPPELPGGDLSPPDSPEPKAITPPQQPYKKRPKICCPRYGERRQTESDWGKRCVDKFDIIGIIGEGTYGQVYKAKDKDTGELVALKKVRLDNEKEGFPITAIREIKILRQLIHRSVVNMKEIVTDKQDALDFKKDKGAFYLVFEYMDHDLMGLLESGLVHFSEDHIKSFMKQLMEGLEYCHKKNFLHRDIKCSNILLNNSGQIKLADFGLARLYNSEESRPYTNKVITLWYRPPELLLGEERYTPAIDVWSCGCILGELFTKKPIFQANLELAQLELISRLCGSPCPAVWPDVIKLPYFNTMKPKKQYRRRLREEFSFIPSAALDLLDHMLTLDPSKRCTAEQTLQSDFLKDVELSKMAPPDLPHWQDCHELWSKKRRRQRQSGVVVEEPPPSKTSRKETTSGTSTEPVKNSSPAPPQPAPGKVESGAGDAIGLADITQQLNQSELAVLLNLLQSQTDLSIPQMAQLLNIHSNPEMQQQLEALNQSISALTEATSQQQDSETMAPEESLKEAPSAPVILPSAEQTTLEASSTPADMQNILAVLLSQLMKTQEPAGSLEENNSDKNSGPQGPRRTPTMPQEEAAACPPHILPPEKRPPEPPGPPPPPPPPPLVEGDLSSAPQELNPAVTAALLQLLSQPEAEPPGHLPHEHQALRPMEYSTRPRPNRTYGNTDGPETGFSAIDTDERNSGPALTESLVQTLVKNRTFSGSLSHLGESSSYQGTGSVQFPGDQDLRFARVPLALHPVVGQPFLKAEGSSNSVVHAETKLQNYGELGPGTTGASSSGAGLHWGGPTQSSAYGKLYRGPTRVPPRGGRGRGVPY
T4 sequence (P50750 whole entry): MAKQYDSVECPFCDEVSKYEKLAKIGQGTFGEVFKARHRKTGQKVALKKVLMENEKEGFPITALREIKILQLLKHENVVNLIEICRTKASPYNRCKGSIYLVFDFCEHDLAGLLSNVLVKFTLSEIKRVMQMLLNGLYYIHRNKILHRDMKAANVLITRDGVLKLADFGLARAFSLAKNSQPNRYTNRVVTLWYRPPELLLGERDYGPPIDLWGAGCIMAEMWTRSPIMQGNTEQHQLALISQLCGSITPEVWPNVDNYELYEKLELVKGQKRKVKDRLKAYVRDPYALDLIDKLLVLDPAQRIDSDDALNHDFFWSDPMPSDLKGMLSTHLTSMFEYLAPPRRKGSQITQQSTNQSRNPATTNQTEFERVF
T3 sequence (P06493 whole entry): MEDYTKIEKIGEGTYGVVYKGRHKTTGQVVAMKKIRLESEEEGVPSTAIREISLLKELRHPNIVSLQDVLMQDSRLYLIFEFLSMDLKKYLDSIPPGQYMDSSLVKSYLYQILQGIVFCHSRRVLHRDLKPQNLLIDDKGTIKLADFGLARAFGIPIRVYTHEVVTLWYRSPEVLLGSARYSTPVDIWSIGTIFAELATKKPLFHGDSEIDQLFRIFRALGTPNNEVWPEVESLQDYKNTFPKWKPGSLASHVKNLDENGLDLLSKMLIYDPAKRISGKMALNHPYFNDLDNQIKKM

With `CN(C)c1ccc(CC(=O)Nc2ncc(SCc3cccnc3)s2)cc1` [S656], the IC50 in experiment [1] (Homo sapiens, OCI-AML-5, 96 h, sgAAVS + DOX) stood at 923 nM; in experiment [1] (Homo sapiens, OCI-AML-5, 96 h, sgAAVS - DOX), 896 nM; in experiment [1] (Homo sapiens, OCI-AML-5, 96 h, sgDDB1 #1 + DOX), 2170 nM; in experiment [1] (Homo sapiens, OCI-AML-5, 96 h, sgDDB1 #1 - DOX), 1190 nM; in experiment [1] (Homo sapiens, OCI-AML-5, 96 h, sgDDB1 #2 + DOX) it was 2440 nM; in experiment [1] (Homo sapiens, OCI-AML-5, 96 h, sgDDB1 #2 - DOX) it was 936 nM. Besides, the half-maximal inhibitory concentration (IC50) in experiment [1] (sgAAVS + DOX) is 1130 nM and 960 nM; in experiment [1] (sgAAVS - DOX), 945 nM and 735 nM; in experiment [1] (sgDDB1 #1 + DOX), 2090 nM and 1910 nM; in experiment [1] (sgDDB1 #1 - DOX), 1020 nM and 964 nM; in experiment [1] (sgDDB1 #2 + DOX) it was 2380 nM and 1630 nM; in experiment [1] (sgDDB1 #2 - DOX), 1070 nM and 975 nM. For the same compound, the “Early Apoptosis (FITC+/PI-)” value in the experiment on OCI-AML5 cells (S656 1uM) was 5.3% and 6.01% and 3.13%. Further, the “Live(FITC-/PI-)” value with OCI-AML5 cells (S656 1uM) is 87.8% and 65.8% and 86.8%; in the experiment with OCI-AML5 cells (S656 3uM), 44.5% and 40.2% and 57.7%; with OCI-AML5 cells (S656 5uM) it was 24.3% and 31% and 39%. In addition, the “Necrosis (FITC-/PI+)” value was 0.1% and 0.36% and 0.49% in the experiment with OCI-AML5 cells (S656 1uM); 0.2% and 1.08% and 1.83% in the experiment on OCI-AML5 cells (S656 3uM); 0.6% and 3.31% and 1.13% with OCI-AML5 cells (S656 5uM). Also, the “Late Apoptosis (FITC+/PI+)” value is 39.5% and 53.2% and 33.4% in the experiment with OCI-AML5 cells (S656 3uM); 56.1% and 61.6% and 54.4% with OCI-AML5 cells (S656 5uM).
Consider `CN(CCOCCOCCN)c1ccc(CC(=O)Nc2ncc(SCc3cccnc3)s2)cc1` [UOM-005790], for which the UOM-005790_centered in experiment [2] (centered abundance) is given as -2.58; in experiment [3] (centered abundance), 0.56. In addition, the figures for the UOM-005790compe_centered in experiment [2] (setting [7]) and in experiment [3] (setting [7]) were -1.22 and -0.869, respectively. The UOM-005790_vs_Beads_ratio is given as -5.48 in experiment [2] (immobilized probe vs beads) and 0.378 in experiment [3] (immobilized probe vs beads). In addition, the UOM-005790_vs_UOM-005839_ratio in experiment [2] (probe vs probe UOM-005839) is reported as -3.49; in experiment [3] (probe vs probe UOM-005839) it was 0.434. The UOM-005790_vs_UOM-005790compe_ratio is recorded as -1.36 in experiment [2] (setting [8]) and 1.43 in experiment [3] (setting [8]). Also, the UOM-005790compe_vs_UOM-005839_ratio in experiment [2] (setting [9]) is reported as -2.12; in experiment [3] (setting [9]), -0.995. The UOM-005790compe_vs_Beads_ratio in experiment [2] (setting [10]) is -4.12; in experiment [3] (setting [10]), -1.05. Also, the “pull-down enrichment of CDK1” value in experiment [4] was 2.811 and 2.814 and 2.979. For the same compound, the “pull-down enrichment of CDK9” value in experiment [5] is 2.785 and 2.837 and 2.887. In experiment [6], the “pull-down enrichment of CDK12” value is 0.5953 and 0.6765 and 0.5336.

Source of the values: article PMC12152147, “DDB1 engagement defines the selectivity of S656 analogs for cyclin K degradation over CDK inhibition” (EMBO Reports, 2025).
